Measurements taken from article PMC2861598, “Ligand Binding and Crystal Structures of the Substrate-Binding Domain of the ABC Transporter OpuA” (PLoS ONE, 2010).
Values joined by “and” are separate entries in the source; they are usually repeats but may differ in a detail not shown here. Equal entries are not always repeated. “Also recorded” adds a separate entry of the source. Where two headings read alike, the source gives them in different places.

Legend:
OpuAC [1] = biological target: T1, OpuAC (Lactococcus lactis, UniProt Q9RQ05); assay: Competitive inhibition of glycine betaine-induced fluorescence changes; type: binding
T1 sequence (Q9RQ05 320-573): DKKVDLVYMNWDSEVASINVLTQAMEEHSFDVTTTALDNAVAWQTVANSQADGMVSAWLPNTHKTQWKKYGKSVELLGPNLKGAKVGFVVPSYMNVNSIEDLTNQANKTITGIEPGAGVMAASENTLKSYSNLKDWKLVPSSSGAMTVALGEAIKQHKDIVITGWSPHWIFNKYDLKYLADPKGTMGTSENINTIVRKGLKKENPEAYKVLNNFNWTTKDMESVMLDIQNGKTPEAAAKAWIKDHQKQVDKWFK
Experimental: (§1) Fluorescence spectra were obtained with a Fluorolog®-3 (Jobin Yvon) spectrofluorometer. A quartz-cuvette containing 800 µL of protein sample was incubated for 10 minutes at 25°C under constant stirring before stepwise addition of the substrate (or buffer as control), using a Hamilton syringe pump (Harvard apparatus). Samples were incubated for 5 seconds before the fluorescence signal was collected for 20 seconds to obtain an averaged value at each substrate concentration.
(§2) For the intrinsic protein fluorescence measurements, the excitation and emission wavelengths were 295 and 360 nm (and slit widths of 1 and 5 nm), respectively. To determine the salt dependence of ligand-binding to purified OpuA, the buffer was exchanged to various KPi concentrations (12.5–250 mM), pH 7.0, 20% glycerol and 0.05% DDM, using a NAP10 column (GE Healthcare). Corrections for background fluorescence changes were made by titrations with buffer.
(§3) Fluorescence titrations were analyzed essentially as described by Lanfermeijer. Curve fitting was performed in Origin (OriginLab).

[2] = test system: OpuA reconstituted in proteoliposomes; assay: Substrate transport in OpuA-containing proteoliposomes, filter-based assay; type: biochemical, Lactococcus lactis; details: 14C-labeled substrate, 50 µM (51 µM) or 5 mM, up to 30 min, 200 mM KPi pH 7 external
Experimental: Proteoliposomes were prepared as described previously by Geertsma et al. with an ATP regenerating system present and using 200 mM KPi, pH 7, as external medium. The transport activity was measured using a filter-based assay as described by Geertsma et al. in a time dependent way (up to 30 min), using a fixed concentration of 50 µM or 5 mM of substrate.

[3] = biological target: T2, OpuAC (substrate-binding domain of OpuA) (Lactococcus lactis, UniProt Q9RQ05); assay: Ligand binding to purified OpuAC, intrinsic protein fluorescence (direct titration); details: for ΔFmax: pH7.0
T2 sequence (Q9RQ05 320-573): T1 sequence (Q9RQ05 320-573)
Experimental: as §1, §2, §3

OpuAΔSBD = assay: Ligand binding to OpuAΔSBD; set-up: species or system Lactococcus lactis; details: data not shown
purified OpuA [4] = biological target: T3, purified OpuA (Lactococcus lactis subsp. lactis, UniProt Q7DAU8); assay: Glycine betaine binding to purified DDM-solubilized OpuA, intrinsic protein fluorescence; details: for Kd / ΔFmax: pH7.0
T3 sequence (Q7DAU8 1-573): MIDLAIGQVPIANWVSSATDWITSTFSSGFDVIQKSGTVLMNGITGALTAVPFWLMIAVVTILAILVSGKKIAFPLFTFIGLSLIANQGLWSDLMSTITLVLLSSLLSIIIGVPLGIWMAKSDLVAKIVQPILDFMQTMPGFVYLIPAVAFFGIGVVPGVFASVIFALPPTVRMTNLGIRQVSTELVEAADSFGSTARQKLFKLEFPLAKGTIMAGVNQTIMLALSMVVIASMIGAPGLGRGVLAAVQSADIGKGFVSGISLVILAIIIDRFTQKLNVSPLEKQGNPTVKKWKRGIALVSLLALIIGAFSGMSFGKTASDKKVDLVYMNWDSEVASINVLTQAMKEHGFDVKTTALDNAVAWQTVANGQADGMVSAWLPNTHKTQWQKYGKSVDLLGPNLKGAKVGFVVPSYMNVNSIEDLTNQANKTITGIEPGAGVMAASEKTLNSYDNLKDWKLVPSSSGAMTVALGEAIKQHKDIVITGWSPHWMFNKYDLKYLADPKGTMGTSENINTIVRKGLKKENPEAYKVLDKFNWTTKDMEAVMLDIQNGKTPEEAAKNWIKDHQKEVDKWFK
T3 sequence (Q9KIF7 1-408 partner): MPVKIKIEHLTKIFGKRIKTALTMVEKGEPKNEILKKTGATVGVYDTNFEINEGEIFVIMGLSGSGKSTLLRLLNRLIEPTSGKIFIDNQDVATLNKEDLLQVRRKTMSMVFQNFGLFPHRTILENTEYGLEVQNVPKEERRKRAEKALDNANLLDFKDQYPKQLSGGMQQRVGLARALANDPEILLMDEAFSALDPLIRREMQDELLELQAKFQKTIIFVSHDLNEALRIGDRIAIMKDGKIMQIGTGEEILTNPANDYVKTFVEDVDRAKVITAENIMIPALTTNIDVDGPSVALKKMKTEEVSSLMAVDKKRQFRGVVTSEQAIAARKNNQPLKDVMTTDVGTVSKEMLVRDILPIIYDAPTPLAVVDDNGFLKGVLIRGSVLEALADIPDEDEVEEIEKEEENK
Experimental: as §1, §2, §3

OpuAΔCBS = assay: Ligand binding to OpuAΔCBS; set-up: species or system Lactococcus lactis; details: data not shown
OpuAC [5] = biological target: T1, OpuAC; assay: Isothermal titration calorimetry of glycine betaine binding; details: ITC
Experimental: 200 µL of OpuAC (concentrated to 50 µM in 150 mM KPi, pH 7) was added to the cell. […] Typically, 20 injections of 2 µL volume were made with intervals of 120 seconds between each addition.

purified OpuA [6] = biological target: T3, purified OpuA; assay: Filter-based assay with radio-labeled glycine betaine (ammonium sulfate precipitation); type: binding
Experimental: This method is based on the principle that upon salting-out of the protein (by ammonium sulfate), the substrate remains trapped in the ligand-binding site. For these measurements, purified OpuA in the presence of 0.05% (w/v) n-dodecyl-β-maltopyranoside (DDM) was mixed such that the protein (at a final concentration of 100 µg/mL) was in a buffer composed of 10, 50 or 250 mM KPi pH7.0, 20% glycerol and 0.05% DDM. The binding assays were carried in a volume of 100 µL. […] The mixture was filtered rapidly through 0.45 µm pore-size cellulose nitrate filters. The filters were washed twice with 2 ml ammonium sulfate solution. Subsequently, the filters were placed in an open plastic vial and dried under heating in an oven at 37°C for 2 hours. The radioactivity on the filters was measured via liquid scintillation counting, using emulsifier plus scintillation liquid (Perkin Elmer). Measurements were corrected for background signals and the average of the corrected data was fitted as described under fluorescence measurements.

[7] = biological target: OpuA in a lipidic environment; set-up: method as in PMID 14609945; details: read-out: dissociation constant; cited from earlier work
purified OpuA [8] = biological target: T3, purified OpuA; assay: Glycine betaine binding to purified DDM-solubilized OpuA, intrinsic protein fluorescence; details: OpuA solubilized in DDM; over all salt concentrations (10–250 mM KPi); read-out: dissociation constant (Kd)

C[N+](C)(C)CC(O)CC(=O)[O-] (centres unmarked) [Carnitine]
Ki (OpuAC [1]): 65000 ± 11000 µM | transport into OpuA-containing proteoliposomes [2]: not taken up | fluorescence response on direct titration ([3]; ∼0.5 µM OpuAC): did not reach a stable end-level

C[N+]1(C)CCC[C@H]1C(=O)[O-] [Proline betaine]
Ki (OpuAC [1]; inhibition of glycine betaine binding, ∼0.5 µM OpuAC): 41 ± 8 µM | Ki (OpuAC [1]; inhibition of glycine betaine binding, ∼0.5 µM OpuAC, listed as proline betaine): ~41 µM

O=C(O)[C@@H]1CCCN1 [Proline]
transport into OpuA-containing proteoliposomes [2]: no accumulation of the proline | transport into OpuA-containing proteoliposomes ([2]; listed as proline): entered the vesicles slowly but at an equal rate in the proteoliposomes and the liposomes devoid of OpuA

C[N+](C)(C)CC(=O)[O-] [glycine betaine]
glycine betaine binding (OpuAΔSBD): did not show any glycine betaine binding | increase of dissociation constant in DDM-solubilized state versus lipidic environment (purified OpuA [4]): around 10 fold | Kd (purified OpuA [4]; 12.5 mM KPi): 6 ± 0.5 µM | ΔFmax (purified OpuA [4]; 12.5 mM KPi): 9.9±0.3% | Kd (purified OpuA [4]; 50 mM KPi): 6 ± 0.7 µM | ΔFmax (purified OpuA [4]; 50 mM KPi): 10.8±0.4% | Kd (purified OpuA [4]; 250 mM KPi): 5.2 ± 0.2 µM | ΔFmax (purified OpuA [4]; 250 mM KPi): 9.3±0.2% | maximal fluorescence change (purified OpuA [4]; over all salt concentrations): 9–11% | transport into OpuA-containing proteoliposomes [2]: transported against a concentration gradient; also recorded: transport against a large concentration gradient | effect of deletion of the CBS domains on dissociation constant (OpuAΔCBS): did not alter the dissociation constant | glycine betaine bound per mol of OpuAC (OpuAC [5]; 50 µM OpuAC, 150 mM KPi pH 7, 25°C): 0.7 mol | Gibbs free energy (OpuAC [5]; 25°C): -7.5 kcal/mol | enthalpy change (ΔH) (OpuAC [5]; 25°C): -3.8 ± 0.1 kcal/mol | maximal number of binding sites (purified OpuA [6]; all salt concentrations): ~3 nmol/mg OpuA | Kd (purified OpuA [6]; averaged from duplicate measurements for all salt concentrations (10, 50, 250 mM KPi), 30°C): 7.3 µM | Kd [7]: ~500 nM | bound glycine betaine ([3]; 19.6 µM OpuAC in 150 mM KPi pH 7.0): 0.74 mol glycine betaine per mol of OpuAC | bound substrate ([3]; 19.6 µM OpuAC in 150 mM KPi pH 7.0, data fit): 14.5 ± 1.6 µM | ΔFmax ([3]; OpuAC, 12.5 mM KPi): 23.6±1.1% | ΔFmax ([3]; OpuAC, 50 mM KPi): 23.4±0.9% | ΔFmax ([3]; OpuAC, 250 mM KPi): 23.1±1.2% | maximal fluorescence change ([3]; OpuAC, over all salt concentrations): 23–24% | amount of glycine betaine bound ([3]; very high protein concentration): 0.74 mol/mol OpuAC | Kd (purified OpuA [8]): 4 to 6 µM and 5 to 6 µM
